In US8173689B2 (Novartis AG, priority 2006, dated 2012):
Read-outs that look alike come from different tables or passages of the source.

Assays:
[1] = biological target: T1, cytoplasmic domain of the human CSF-1R (Homo sapiens, UniProt P07333); test: In vitro kinase assay for colony stimulating factor-1 receptor (AlphaScreen); assay type: biochemical; settings: tested at about 1 μM, read-out: CSF-1R percent inhibition
T1 construct: Recombinant protein corresponding to the cytoplasmic domain of the human CSF-1R; purchased Invitrogen Corporation, Carlsbad, Calif; PV3249
T1 sequence (P07333 539-972 limits assumed): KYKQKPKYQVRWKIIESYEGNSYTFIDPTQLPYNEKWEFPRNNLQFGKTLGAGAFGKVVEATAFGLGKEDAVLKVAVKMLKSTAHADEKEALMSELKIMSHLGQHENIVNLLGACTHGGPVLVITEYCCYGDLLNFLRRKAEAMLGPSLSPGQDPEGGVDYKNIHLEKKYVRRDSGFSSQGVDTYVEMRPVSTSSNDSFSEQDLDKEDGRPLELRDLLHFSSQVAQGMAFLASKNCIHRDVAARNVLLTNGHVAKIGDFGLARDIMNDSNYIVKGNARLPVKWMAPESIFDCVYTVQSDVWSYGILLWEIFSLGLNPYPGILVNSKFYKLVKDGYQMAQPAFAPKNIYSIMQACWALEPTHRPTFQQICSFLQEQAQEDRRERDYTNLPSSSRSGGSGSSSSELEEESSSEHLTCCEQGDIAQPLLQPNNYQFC
Method in brief: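 AlphaScreen read-out (PT66 anti-pTyr acceptor beads, streptavidin donor beads, overnight incubation) measured phosphorylated peptide product. The product was formed by the human CSF-1R cytoplasmic domain at 4 nM with 1 µM ATP in Mg2+/Mn2+ HEPES buffer, pH 7.5. Compound dilution series were 3-fold, starting at 25 µM.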

[2] = biological target: T2, full-length human CSF-1R receptor (Homo sapiens, UniProt P07333); test: In vitro inhibition of CSF-1R receptor tyrosine phosphorylation in transfected HEK293H cells stimulated with MCSF; assay type: cell-based; settings: HEK293-H, tested at about 1 μM, read-out: pCSF1R percent inhibition
T2 construct: transfected with the full-length human CSF-1R receptor cloned in house; expressed in transfected cells; host or cells: HEK293H (Invitrogen Cat. #11631017)
T2 sequence (P07333 20-972): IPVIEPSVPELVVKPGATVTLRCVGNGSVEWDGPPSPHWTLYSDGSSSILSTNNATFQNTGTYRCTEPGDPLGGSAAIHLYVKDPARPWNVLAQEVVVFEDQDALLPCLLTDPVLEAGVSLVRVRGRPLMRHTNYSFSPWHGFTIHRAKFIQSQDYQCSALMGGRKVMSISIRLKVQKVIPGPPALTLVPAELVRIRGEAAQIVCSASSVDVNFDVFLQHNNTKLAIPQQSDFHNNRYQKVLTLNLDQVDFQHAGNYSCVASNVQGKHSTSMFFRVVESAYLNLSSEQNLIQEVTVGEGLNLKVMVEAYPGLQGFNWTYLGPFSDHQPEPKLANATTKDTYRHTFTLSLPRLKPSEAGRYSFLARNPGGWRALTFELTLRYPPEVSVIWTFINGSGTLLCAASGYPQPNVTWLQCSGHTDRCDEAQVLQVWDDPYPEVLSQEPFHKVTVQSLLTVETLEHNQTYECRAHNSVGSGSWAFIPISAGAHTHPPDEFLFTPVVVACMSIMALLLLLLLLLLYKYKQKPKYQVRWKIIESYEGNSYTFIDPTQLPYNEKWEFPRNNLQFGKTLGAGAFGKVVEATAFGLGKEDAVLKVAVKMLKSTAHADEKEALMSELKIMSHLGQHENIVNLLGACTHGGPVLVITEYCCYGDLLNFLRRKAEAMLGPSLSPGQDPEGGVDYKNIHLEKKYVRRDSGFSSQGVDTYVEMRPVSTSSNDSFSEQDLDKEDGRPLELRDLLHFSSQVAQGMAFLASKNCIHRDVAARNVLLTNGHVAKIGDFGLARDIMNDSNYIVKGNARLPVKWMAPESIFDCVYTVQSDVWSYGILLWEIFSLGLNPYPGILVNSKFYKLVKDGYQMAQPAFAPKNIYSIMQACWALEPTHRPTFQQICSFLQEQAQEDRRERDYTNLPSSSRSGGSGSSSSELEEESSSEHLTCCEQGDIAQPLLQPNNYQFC
Procedure: The lysate was then transferred to total CSF-1R antibody coated 96-well plates that had already been blocked with 3% Blocker A from Mesoscale discovery (MSD) for 2 hours and washed afterwards. Lysates were incubated overnight at 4° C. and the plates were then washed 4× with MSD Tris Wash Buffer. […] The plates were read on the Sector 6000 instrument (MSD). Raw data was imported in Abase and EC50s calculated with XL-fit data analysis software.

[3] = biological target: T3, kinase domain of cKIT (Homo sapiens, UniProt P10721); test: Inhibition of cKIT kinase signaling in an in vitro biochemical assay (alphascreen); settings: tested at about 1 μM, read-out: cKit percent inhibition
T3 construct: The kinase domain of cKIT was assayed in 50 mM Hepes; purchased Upstate 14-559
T3 sequence (P10721 589-937 limits assumed): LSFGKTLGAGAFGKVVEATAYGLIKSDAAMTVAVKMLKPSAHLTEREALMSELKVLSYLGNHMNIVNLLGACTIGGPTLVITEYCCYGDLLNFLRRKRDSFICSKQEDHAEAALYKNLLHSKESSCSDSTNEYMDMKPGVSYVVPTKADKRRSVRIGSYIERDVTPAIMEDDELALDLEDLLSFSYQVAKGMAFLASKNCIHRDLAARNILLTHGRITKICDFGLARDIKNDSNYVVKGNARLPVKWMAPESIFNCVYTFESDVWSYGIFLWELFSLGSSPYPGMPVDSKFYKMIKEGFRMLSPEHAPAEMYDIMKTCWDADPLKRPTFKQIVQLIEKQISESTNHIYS

[4] = biological target: T4, kinase domain of PDGFRβ (Homo sapiens, UniProt P09619); test: Inhibition of PDGFRb kinase signaling in an in vitro biochemical assay (alphascreen); settings: tested at about 1 μM, read-out: PDGFRβ percent inhibition
T4 construct: The kinase domain of PDGFRβ was assayed in 50 mM Hepes; purchased Invitrogen P3082
T4 sequence (P09619 600-962 limits assumed): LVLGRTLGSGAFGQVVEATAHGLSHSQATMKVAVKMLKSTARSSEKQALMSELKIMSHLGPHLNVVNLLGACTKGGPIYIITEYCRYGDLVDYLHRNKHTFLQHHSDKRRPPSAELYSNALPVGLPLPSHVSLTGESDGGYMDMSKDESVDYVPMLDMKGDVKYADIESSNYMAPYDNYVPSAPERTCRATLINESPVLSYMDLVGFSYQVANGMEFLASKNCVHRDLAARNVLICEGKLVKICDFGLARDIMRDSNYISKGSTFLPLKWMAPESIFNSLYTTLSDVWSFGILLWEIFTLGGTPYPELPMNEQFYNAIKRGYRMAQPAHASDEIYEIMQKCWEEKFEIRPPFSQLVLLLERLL

[5] = test system: MNFS60 (murine AML cells); test: Cell viability assay in MCSF dependent MNFS60 cells (Cell Titer Glo); assay type: cell-based; settings: Mus musculus, tested at about 1 μM, read-out: M-NFS-60 CP percent inhibition
Method in brief: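 MNFS60 cells grown with 10 ng/ml MCSF (final) were exposed for 72 hrs at 37° C., 5% CO2 to 3-fold serial compound dilutions. Viable cells were measured by Cell Titer Glo luminescence, in triplicate, and EC50s were derived by curve fitting.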

Row | inhibition at 1 µM ([1]; compounds of Table 3) [%] | inhibition at 1 µM ([1]; compounds of Table 4) [%] | inhibition at 1 µM [1] [%] | inhibition at 1 µM ([2]; compounds of Table 4) [%] | inhibition at 1 µM ([3]; compounds of Table 3) [%] | inhibition at 1 µM ([3]; compounds of Table 4) [%] | inhibition at 1 µM [3] [%] | inhibition at 1 µM ([4]; compounds of Table 3) [%] | inhibition at 1 µM ([4]; compounds of Table 4) [%] | inhibition at 1 µM [4] [%] | inhibition at 1 µM ([2]; HEK293H cells) [%] | inhibition at 1 µM ([2]; compounds of Table 3) [%] | SMILES | inhibition at 1 µM ([5]; compounds of Table 3) [%] | inhibition at 1 µM ([5]; compounds of Table 4) [%] | inhibition at 1 µM ([5]; MNFS60 cells) [%] | inhibition at 1 µM ([5]; MCSF dependent MNFS60 cells) [%]
1 | 99 | 100 | 56 | 99 | 13 | 10 | 59 | 14 | 14 | 8 |  |  | CNC(=O)c1cc(Oc2ccc3nc(N[C@@H]4c5ccccc5C[C@@H]4O)oc3c2)ccn1 [Compound 50, 4-[2-((1R,2S)-2-Hydroxy-indan-1-ylamino)-benzooxazol-6-yloxy]-pyridine-2-carboxylic acid methylamide] | 18 | 100 |  | 
2 |  |  | 99 |  |  |  | 33 |  |  | 4 | 91 |  | CNC(=O)c1cc(Oc2ccc3nc(NCc4ccccc4-n4cccn4)sc3c2)ccn1 [Compound 143, 4-[2-(2-Pyrazol-1-yl-benzyl-amino)-benzothiazol-6-yloxy]-pyridine-2-carboxylic acid methylamide] |  |  | 97 | 
3 | 100 |  |  |  | 25 |  |  | 18 |  |  |  | 95 | O[C@@H]1CCCC[C@H]1Nc1nc2ccc(Oc3ccnc(-c4ccnc(F)c4)c3)cc2s1 [Cmpd 171, (1R,2R)-2-(6-(2'-fluoro-2,4'-bipyridin-4-yloxy)benzo[d]thiazol-2-ylamino)cyclohexanol] | 96 |  |  | 
4 |  |  | 100 |  |  |  | 99 |  |  | 88 | 96 |  | c1cc(Oc2ccc3nc(NCC4CCCCC4)sc3c2)cc(-c2cn[nH]c2)n1 [Example 341, 6-(2-(1H-pyrazol-4-yl)pyridin-4-yloxy)-N-(cyclohexylmethyl)benzo[d] thiazol-2-amine] |  |  |  | 99
5 |  |  | 100 |  |  |  | 25 |  |  | 24 | 98 |  | CNC(=O)c1cc(Oc2ccc3nc(N[C@@H]4c5ccccc5C[C@@H]4O)sc3c2)ccn1 [Example 323, 4-(2-((1R,2S)-2-hydroxy-2,3-dihydro-1H-inden-1-ylamino)benzo[d]thiazol-6-yloxy)-N-methylpicolinamide] |  |  |  | 100
6 |  |  | 100 |  |  |  | 35 |  |  | 0 | 45 |  | CNC(=O)c1cc(Oc2ccc3nc(NC(C)c4cccc5c4OCCO5)oc3c2)ccn1 (stereo not drawn) [Compound 125, 4-{2-[1-(2,3-Dihydro-benzo-[1,4]dioxin-5-yl)-ethylamino]-benzooxazol-6-yloxy}-pyridine-2-carboxylic acid methylamide] |  |  | 44 | 
7 |  |  | 100 |  |  |  | 17 |  |  | 7 | 60 |  | CNC(=O)c1cc(Oc2ccc3nc(N[C@H](C)C4CCCCC4)oc3c2)ccn1 [Compound 54, 4-[2-((R)-1-Cyclohexyl-ethylamino)-benzooxazol-6-yloxy]-pyridine-2-carboxylic acid methylamide] |  |  | 64 | 
8 | 100 |  |  |  | 38 |  |  | 12 |  |  |  | 75 | C[C@H](Nc1nc2ccc(Oc3ccnc(-c4cnc5[nH]ccc5c4)c3)cc2s1)C1CCCCC1 [Example 278, (S)-6-(2-(1H-pyrrolo[2,3-b]pyridin-5-yl)pyridin-4-yloxy)-N-(1-cyclohexylethyl)benzo[d] thiazol-2-amine] | 82 |  |  | 
9 |  |  | 100 |  |  |  | 13 |  |  | 0 | 84 |  | Nc1ncc(-c2cc(Oc3ccc4nc(N[C@@H]5CCCC[C@H]5O)sc4c3)ccn2)cn1 [Example 346, (1R,2R)-2-(6-(2-(2-aminopyrimidin-5-yl)pyridin-4-yloxy)benzo[d]thiazol-2-ylamino)cyclohexanol] |  |  |  | 67
10 |  |  | 100 |  |  |  | 66 |  |  | 69 | 84 |  | CCNc1cc(Oc2ccc3nc(NCC4CCCCC4)sc3c2)ccn1 [Example 339, N-(cyclohexylmethyl)-6-(2-(ethylamino)pyridin-4-yloxy)benzo[d]thiazol-2-amine] |  |  |  | 66
11 |  |  | 99 |  |  |  | 32 |  |  | 0 | 94 |  | CNC(=O)c1cc(Oc2ccc3nc(NCc4ccc5c(c4)CCO5)oc3c2)ccn1 [Compound 124, 4-{2-[(2,3-Dihydro-benzofuran-5-ylmethyl)-amino]-benzooxazol-6-yloxy}-pyridine-2-carboxylic acid methylamide] |  |  | 51 | 
12 |  | 100 | 98 | 98 |  | 65 |  |  | 0 | 35 | 83 |  | CNC(=O)c1cc(Oc2ccc3nc(NCc4cc(F)ccc4F)oc3c2)ccn1 [Compound 33, 4-[2-(2,5-Difluoro-benzylamino)-benzooxazol-6-yloxy]-pyridine-2-carboxylic acid methylamide] |  | 100 | 35 | 
13 |  |  | 99 |  |  |  | 99 |  |  | 100 | 98 |  | CNC(=O)c1cc(Oc2ccc3nc(NCC4CCCCCC4)sc3c2)ccn1 [Compound 148, 4-[2-(Cycloheptylmethyl-amino)-benzothiazol-6-yloxy]-pyridine-2-carboxylic acid methylamide] |  |  | 100 | 
14 | 100 |  |  |  | 20 |  |  | 3 |  |  |  | 48 | O[C@@H]1CCCC[C@H]1Nc1nc2ccc(Oc3ccnc(-n4ccnc4)c3)cc2s1 [Example 262, (1R,2R)-2-(6-(2-(1H-imidazol-1-yl)pyridin-4-yloxy)benzo[d]thiazol-2-ylamino)cyclohexanol] | 46 |  |  | 
15 | 100 |  |  |  | 25 |  |  | 30 |  |  |  | 98 | Nc1ccc(-c2cc(Oc3ccc4nc(N[C@@H]5CCCC[C@H]5O)sc4c3)ccn2)cn1 [Example 261, (1R,2R)-2-(6-(6'-amino-2,3'-bipyridin-4-yloxy)benzo[d]thiazol-2-ylamino)cyclohexanol] | 100 |  |  | 
16 | 100 |  |  |  | 25 |  |  | 23 |  |  |  | 65 | C[C@H](Nc1nc2ccc(Oc3ccnc4ccccc34)cc2s1)C1CCCCC1 [Example 241, (S)-N-(1-cyclohexylethyl)-6-(quinolin-4-yloxy)benzo[d]thiazol-2-amine] | 51 |  |  | 
17 |  |  | 100 |  |  |  | 37 |  |  | 58 | 99 |  | Cn1cc(-c2cc(Oc3ccc4nc(N[C@@H](CO)C5CCCCC5)sc4c3)ccn2)cn1 [Example 347, (R)-2-cyclohexyl-2-(6-(2-(1-methyl-1H-pyrazol-4-yl)pyridin-4-yloxy)benzo[d]thiazol-2-ylamino)ethanol] |  |  |  | 100
